In patent US20260224549A1, “COMPOUNDS, COMPOSITIONS, AND METHODS FOR TREATING, AMELIORATING, AND/OR PREVENTING PAIN” (priority 2023, published 2026):
Values joined by “and” are separate entries in the source; they are usually repeats but may differ in a detail not shown here. Equal entries are not always repeated.

Legend:
[1] = in vivo; details: dog, in vivo
Excerpt: (§1) The chosen dose can be higher, as long as within the pharmacological range.

[2] = system: dog; experiment: in vivo
Excerpt: as §1

[3] = system: rat
Excerpt: as §1

[4] = Static vapor sorption studies; type: physicochemical; details: Panel: Static humidity; 7 experiments
Excerpt: Static Vapor Sorption Studies
Static vapor sorption studies were done in hermetic humidity chambers using saturated salts, or environmental humidity chambers to control the temperature and humidity. Data collected during dynamic vapor sorption studies often are not at thermodynamic equilibrium. To gain a better understanding of the water uptake and the critical humidity level of the API, samples of the starting material (i.e., Form A) were monitored in static humidity chambers to allow the sample to equilibrate with atmospheric moisture.
In these studies, water vapor sorption was determined gravimetrically by storing samples in open aluminum dishes. Compound I diphosphate salt lot was used for this study. Samples were stored at 7 different humidity levels at ambient temperature (Table 19). Approximately 50 mg of Form A was staged at each humidity condition. The samples were weighed before placing them in the chamber and then re-weighed after 3 weeks. After re-weighing, the samples were immediately analyzed by XRD to determine whether a change in form had occurred.
The sample stored at 11% RH was an outlier and was therefore omitted from the final isotherm plot. The static isotherm plot is roughly consistent with the DVS isotherm plot (FIG. 12F) with a large moisture uptake at around 40% RH and a maximum uptake between 4 and 5 weight percent.

[5] = clinical; details: for CL/F (apparent clearance), Mean / Tlast (time of last measurable concentration), Median / Tlast, Max / Tlast, Min / Tmax, Min / Tmax, Max / AUC(0-t): single oral dose, N = 6; for CL/F (apparent clearance), Mean / Tlast (time of last measurable concentration), Median / Tlast, Max / Tlast, Min / Tmax, Min / Tmax, Max / Tmax / half-life / Vd/F / AUC(0-inf) / Cmax / AUC(0-t): plasma; for Tmax / half-life / Vd/F / AUC(0-inf) / Cmax / AUC(0-t): human; for AUC(0-t): Mean
Excerpt: The study comprised a single ascending dose (SAD), sequential cohort study, incorporating a food effect (FE) evaluation. Up to 40 subjects were to be studied in 5 cohorts (Cohorts A1 to A5), each cohort consisting of 8 subjects.
Subjects in Cohort A3 participated in 2 treatment periods (once in Fed state, once in Fasted state) separated by a minimum of 6 days. All subjects were to return for a poststudy on Day 5 (+2 days) after their final dose for a final safety assessment.
All doses for Cohorts A1, A2, A4, and A5 were administered in the fasted state in the moming of Day 1.
The actual blood sampling dates and times relative to dosing time were listed by subject and nominal sampling time, with time deviation calculated, for all subjects with available plasma concentration data.
For PK concentration data, the number of non-missing values, number of below limit of quantification (BLQ) values, arithmetic mean, standard deviation, median, minimum, maximum, coefficient of variation (CV %), geometric mean and geometric coefficient of variation (geo CV %) values was presented.
For PK parameter data, the number of non-missing values, arithmetic mean, standard deviation, median, minimum, and maximum values were presented.

[6] = system: human μ-opioid receptor; details: G-protein signaling over β-arrestin signaling
Excerpt: Applying ^19F NMR, one can measure the quantity of G-protein signaling conformation, as well as that of β-arrestin signaling conformation, of the μ-opioid receptor as induced by an agonist.

[7] = biological target: μ-opioid receptor (Rattus norvegicus, UniProt P33535)
Chain of μ-opioid receptor (P33535 whole entry): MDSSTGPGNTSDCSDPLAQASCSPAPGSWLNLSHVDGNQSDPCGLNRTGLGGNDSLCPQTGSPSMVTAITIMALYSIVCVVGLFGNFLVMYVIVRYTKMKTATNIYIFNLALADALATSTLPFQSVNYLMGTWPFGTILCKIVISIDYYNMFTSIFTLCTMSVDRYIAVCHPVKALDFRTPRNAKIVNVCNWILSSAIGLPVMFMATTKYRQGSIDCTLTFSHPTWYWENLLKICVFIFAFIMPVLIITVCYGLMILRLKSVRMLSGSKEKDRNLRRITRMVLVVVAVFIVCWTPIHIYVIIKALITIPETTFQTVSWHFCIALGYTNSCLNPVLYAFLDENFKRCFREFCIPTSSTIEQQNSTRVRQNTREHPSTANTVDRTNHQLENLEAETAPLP

Compound: CN(C)C[C@H]1CN(CCc2ccsc2)CC[C@]1(O)c1cccc(C(N)=O)c1 [Compound I, 3-(3S, 4R)-3-((dimethylamino)methyl)-4-hydroxy-1-(2-(thiophen-3-yl)ethyl)piperidin-4-yl-benzamide]
- NOAEL [1]: 60 mg/kg/day and 33.3 mg/kg
- NOAEL HED for 50 kg subject [2]: 1665 mg
- NOAEL HED for 50 kg subject [3]: 485 mg
- No. of experiments giving Amorphous Form [4]: 0
- No. of experiments giving Form A [4]: 7
- No. of experiments with No solid recovered [4]: 0
- CL/F (apparent clearance), Mean ([5]; 20 mg DS (Fasted)): 1130 L/h
- Tlast (time of last measurable concentration), Median ([5]; 20 mg DS (Fasted)): 4.00 h
- Tlast, Max ([5]; 20 mg DS (Fasted)): 4.03 h
- Tlast, Min ([5]; 20 mg DS (Fasted)): 3.50 h
- Tmax, Min ([5]; 20 mg DS (Fasted)): 0.500 h
- CL/F ([5]; 20 mg fasted): 1130 L/h
- mean concentrations measurable through ([5]; 20 mg fasted): 3.5 h
- CL/F (apparent clearance), Mean ([5]; 60 mg DS (Fasted)): 937 L/h
- Tlast (time of last measurable concentration), Median ([5]; 60 mg DS (Fasted)): 12.0 h
- Tlast, Max ([5]; 60 mg DS (Fasted)): 24.0 h
- Tlast, Min ([5]; 60 mg DS (Fasted)): 6.00 h
- Tmax, Max ([5]; 60 mg DS (Fasted)): 3.02 h
- CL/F ([5]; 60 mg fasted): 937 L/h
- mean concentrations measurable through ([5]; 60 mg fasted): 8 h
- CL/F (apparent clearance), Mean ([5]; 120 mg DS (Fasted)): 541 L/h
- Tlast (time of last measurable concentration), Median ([5]; 120 mg DS (Fasted)): 36.0 h
- Tlast, Max ([5]; 120 mg DS (Fasted)): 48.0 h
- Tlast, Min ([5]; 120 mg DS (Fasted)): 16.0 h
- Tmax, Max ([5]; 120 mg DS (Fasted)): 3.00 h
- mean concentrations measurable through ([5]; 120 mg fasted): 36 h
- CL/F (apparent clearance), Mean ([5]; 200 mg DS (Fasted)): 452 L/h
- Tlast (time of last measurable concentration), Median ([5]; 200 mg DS (Fasted)): 48.0 h
- Tlast, Max ([5]; 200 mg DS (Fasted)): 48.1 h
- Tlast, Min ([5]; 200 mg DS (Fasted)): 36.0 h
- Tmax, Max ([5]; 200 mg DS (Fasted)): 2.02 h
- Tmax, Min ([5]; 200 mg DS (Fasted)): 1.00 h
- mean concentrations measurable through ([5]; 200 mg fasted): 36 h
- CL/F (apparent clearance), Mean ([5]; 400 mg DS (Fasted)): 500 L/h
- Tlast (time of last measurable concentration), Median ([5]; 400 mg DS (Fasted)): 48.0 h
- Tlast, Max ([5]; 400 mg DS (Fasted)): 48.0 h
- Tlast, Min ([5]; 400 mg DS (Fasted)): 48.0 h
- Tmax, Max ([5]; 400 mg DS (Fasted)): 2.02 h
- Tmax, Min ([5]; 400 mg DS (Fasted)): 1.00 h
- mean concentrations measurable through ([5]; 400 mg fasted): 48 h
- Tmax ([5]; oral): 1.5 to 2.5 h
- half-life ([5]; oral): 29.4 to 31.4 h
- Vd/F ([5]; oral, 20 mg): 1380 L
- half-life ([5]; oral, 20 mg): 1.05 h
- Vd/F ([5]; oral, 60 mg): 6790 L
- half-life ([5]; oral, 60 mg): 7.89 h
- Vd/F ([5]; oral, 120 mg): 12300 L
- Vd/F ([5]; oral, 200 mg): 18100 L
- Vd/F ([5]; oral, 400 mg): 20400 L
- AUC(0-inf) ([5]; po, 20 mg): 18.4 ng·h/mL
- Cmax ([5]; po, 20 mg): 9.69 ng/mL
- Tmax ([5]; po, 20 mg): 2.5 h
- Vd/F ([5]; po, 20 mg): 1380 L
- half-life ([5]; po, 20 mg): 1.05 h
- AUC(0-t) ([5]; po, 20 mg, AUC0-last (zero to 24 hours postdose), 20 mg DS (Fasted)): 16.5 ng·h/mL
- AUC(0-t) ([5]; po, 20 mg, AUC0-t (zero to the last quantifiable concentration), 20 mg DS (Fasted)): 13.9 ng·h/mL
- AUC(0-inf) ([5]; po, 60 mg): 79.8 ng·h/mL
- Cmax ([5]; po, 60 mg): 51.7 ng/mL
- Tmax ([5]; po, 60 mg): 2.25 h
- Vd/F ([5]; po, 60 mg): 6790 L
- half-life ([5]; po, 60 mg): 7.89 h
- AUC(0-t) ([5]; po, 60 mg, AUC0-last (zero to 24 hours postdose), 60 mg DS (Fasted)): 71.6 ng·h/mL
- AUC(0-t) ([5]; po, 60 mg, AUC0-t (zero to the last quantifiable concentration), 60 mg DS (Fasted)): 67.1 ng·h/mL
- AUC(0-inf) ([5]; po, 120 mg): 245 ng·h/mL
- Cmax ([5]; po, 120 mg): 98.5 ng/mL
- Tmax ([5]; po, 120 mg): 2.28 h
- Vd/F ([5]; po, 120 mg): 12300 L
- half-life ([5]; po, 120 mg): 31.4 h
- AUC(0-t) ([5]; po, 120 mg, AUC0-last (zero to 24 hours postdose), 120 mg DS (Fasted)): 211 ng·h/mL
- AUC(0-t) ([5]; po, 120 mg, AUC0-t (zero to the last quantifiable concentration), 120 mg DS (Fasted)): 231 ng·h/mL
- AUC(0-inf) ([5]; po, 200 mg): 446 ng·h/mL
- Cmax ([5]; po, 200 mg): 220 ng/mL
- Tmax ([5]; po, 200 mg): 2 h
- Vd/F ([5]; po, 200 mg): 18100 L
- half-life ([5]; po, 200 mg): 29.4 h
- AUC(0-t) ([5]; po, 200 mg, AUC0-last (zero to 24 hours postdose), 200 mg DS (Fasted)): 346 ng·h/mL
- AUC(0-t) ([5]; po, 200 mg, AUC0-t (zero to the last quantifiable concentration), 200 mg DS (Fasted)): 381 ng·h/mL
- AUC(0-inf) ([5]; po, 400 mg): 832 ng·h/mL
- Cmax ([5]; po, 400 mg): 318 ng/mL
- Tmax ([5]; po, 400 mg): 1.5 h
- Vd/F ([5]; po, 400 mg): 20400 L
- half-life ([5]; po, 400 mg): 32.1 h
- AUC(0-t) ([5]; po, 400 mg, AUC0-last (zero to 24 hours postdose), 400 mg DS (Fasted)): 698 ng·h/mL
- AUC(0-t) ([5]; po, 400 mg, AUC0-t (zero to the last quantifiable concentration), 400 mg DS (Fasted)): 794 ng·h/mL
- signaling pathway selectivity [6]: extremely cell-signaling-pathway-selective μ-opioid agonist
- mediation of antinociceptive effect ([7]; in vivo): mediated exclusively by μ-opioid receptor
- pain relief in preclinical models ([7]; preclinical models): comparable to Schedule 2 opiates
- opiate-associated effects (single dose 20-400 mg): no system opiate-associated effects noted
- tolerability (single dose ranging from 20 mg up to 400 mg, healthy subjects): well-tolerated
